The record followed here is ChEMBL document CHEMBL6134796, “Development and Evaluation of Indole-Based Phospholipase D Inhibitors for Lung Cancer Immunotherapy” (J Med Chem, 2025).

Structures are written as SMILES. A value given as a limit tells only on which side of the number the result lay.

For test [1], the system named is HCT-116. Kind of test: Residual PLD activity in human HCT-116 cells at 10 uM measured after 1 hr by amplex red phospholipase D assay as % of control.
The next test deals with A549. Kind of test: Cytotoxicity against human A549 cells assessed as inhibition of cell growth incubated for 48 hrs by WST-1 assay. To be noted: A549, 48 h. The format is functional, cell-based.
The subject of test [2] is HCT-116. Briefly: Cytotoxicity against human HCT-116 cells assessed as inhibition of cell growth incubated for 48 hrs by WST-1 assay. Type of test: functional, cell-based. Particulars: HCT-116, 48 h.
Test [3] can be described thus: Inhibition of PLD in human A549 cells measured after 1 hr by amplex red phospholipase D assay. The format is cell-based.

Take `O=C(Nc1cc(F)cc(F)c1)c1cc2cc(F)ccc2[nH]1`: the level, % of control in the test on HCT-116 [1] stood at 51.1%. As to `O=C(Oc1cc(C(F)(F)F)cc(C(F)(F)F)c1)c1cc2cc(F)ccc2[nH]1`, the IC50 was 50 µM in the test with A549, more than 50 µM with HCT-116 [2] and 3.1 µM in test [3]. Also, the level, % of control with HCT-116 [1] is 33.4%. Take `O=C(Nc1ccc(O)c(O)c1)c1cc2cc(F)ccc2[nH]1`: the half-maximal inhibitory concentration (IC50) in the test on A549 was more than 200 µM; in the test on HCT-116 [2] it was more than 50 µM; in test [3] it was 4.31 µM. Regarding `O=C(Nc1ccc(F)cc1)c1cc2cc(F)ccc2[nH]1`, the level, % of control in the test with HCT-116 [1] was determined as 53.2%. Turning to `O=C(CCc1c[nH]c2ccccc12)Nc1cccc(F)c1`, in the test with HCT-116 [1], the level, % of control was 50.6%.

In the test with HCT-116 [1], `O=C(Cc1c[nH]c2ccccc12)Nc1cc(C(F)(F)F)cc(C(F)(F)F)c1` yielded a level, % of control of 53%. In the test on HCT-116 [1], `COc1ccc(CNC(=O)c2cc3cc(F)ccc3[nH]2)cc1OC` yielded a level, % of control of 48%. With `O=C(Nc1cc(C(F)(F)F)cc(C(F)(F)F)c1)c1cc2cc(C(F)(F)F)ccc2[nH]1`, the level, % of control with HCT-116 [1] was 45.8%. `O=C(Nc1ccc(O)c(O)c1)c1c[nH]c2ccccc12` registered a level, % of control with HCT-116 [1] of 51.1%. On the same count and under the same terms, then `O=C(Nc1cccc(C(F)(F)F)c1)c1cc2cc(F)ccc2[nH]1`, with 47.6%. `C[C@@H](CN1CCC(n2c(=O)[nH]c3cc(Cl)ccc32)CC1)NC(=O)c1ccc2ccccc2c1`: the level, % of control in the test on HCT-116 [1] came to 30.4%. Regarding `COc1ccc(NC(=O)c2cc3cc(F)ccc3[nH]2)cc1OC`, the level, % of control in the test with HCT-116 [1] stood at 52.2%. Take `O=C(CCCc1c[nH]c2ccccc12)Nc1cc(C(F)(F)F)cc(C(F)(F)F)c1`: the level, % of control with HCT-116 [1] turned out to be 55.5%. Still for that read-out and setting: then `O=C(Cc1c[nH]c2ccccc12)Nc1ccc(O)c(O)c1`, with 54.4%.
